target: Mitotic checkpoint serine/threonine-protein kinase BUB1 (Homo sapiens, UniProt O43683); assay: Kinase Assay: In a typical assay 11 different concentrations of each compound (0.1 nM, 0.33 nM, 1.1 nM, 3.8 nM, 13 nM, 44 nM, 0.15 μM, 0.51 μM, 1.7 μM, 5.9 μM and 20 μM) were tested in duplicate within the same microtiter plate. To this end, 100-fold concentrated compound solutions (in DMSO) were previously prepared by serial dilution (1:3.4) of 2 mM stocks in a clear low volume 384-well source microtiter plate (Greiner Bio-One, Frickenhausen, Germany), from which 50 nl of compounds were transferred into a black low volume test microtiter plate from the same supplier. […] The resulting mixture (5 μL final volume) was incubated at 22° C. during 60 min., and the reaction was stopped by the addition of 5 μL of an aqueous EDTA-solution (50 mM EDTA, in 100 mM HEPES pH 7.5 and 0.2% (w/v) bovine serum albumin) which also contained the TR-FRET detection reagents (0.2 μM streptavidin-XL665 [Cisbio Bioassays, Codolet, France] and 1 nM anti-phosho-Serine antibody [Merck Millipore, cat. #35-002] and 0.4 nM LANCE EU-W1024 labeled anti-mouse IgG antibody [Perkin-Elmer, product no. AD0077, alternatively a Terbium-cryptate-labeled anti-mouse IgG antibody from Cisbio Bioassays can be used]). The stopped reaction mixture was further incubated 1 h at 22° C. in order to allow the formation of complexes between peptides and detection reagents.
Sequence (O43683 whole entry): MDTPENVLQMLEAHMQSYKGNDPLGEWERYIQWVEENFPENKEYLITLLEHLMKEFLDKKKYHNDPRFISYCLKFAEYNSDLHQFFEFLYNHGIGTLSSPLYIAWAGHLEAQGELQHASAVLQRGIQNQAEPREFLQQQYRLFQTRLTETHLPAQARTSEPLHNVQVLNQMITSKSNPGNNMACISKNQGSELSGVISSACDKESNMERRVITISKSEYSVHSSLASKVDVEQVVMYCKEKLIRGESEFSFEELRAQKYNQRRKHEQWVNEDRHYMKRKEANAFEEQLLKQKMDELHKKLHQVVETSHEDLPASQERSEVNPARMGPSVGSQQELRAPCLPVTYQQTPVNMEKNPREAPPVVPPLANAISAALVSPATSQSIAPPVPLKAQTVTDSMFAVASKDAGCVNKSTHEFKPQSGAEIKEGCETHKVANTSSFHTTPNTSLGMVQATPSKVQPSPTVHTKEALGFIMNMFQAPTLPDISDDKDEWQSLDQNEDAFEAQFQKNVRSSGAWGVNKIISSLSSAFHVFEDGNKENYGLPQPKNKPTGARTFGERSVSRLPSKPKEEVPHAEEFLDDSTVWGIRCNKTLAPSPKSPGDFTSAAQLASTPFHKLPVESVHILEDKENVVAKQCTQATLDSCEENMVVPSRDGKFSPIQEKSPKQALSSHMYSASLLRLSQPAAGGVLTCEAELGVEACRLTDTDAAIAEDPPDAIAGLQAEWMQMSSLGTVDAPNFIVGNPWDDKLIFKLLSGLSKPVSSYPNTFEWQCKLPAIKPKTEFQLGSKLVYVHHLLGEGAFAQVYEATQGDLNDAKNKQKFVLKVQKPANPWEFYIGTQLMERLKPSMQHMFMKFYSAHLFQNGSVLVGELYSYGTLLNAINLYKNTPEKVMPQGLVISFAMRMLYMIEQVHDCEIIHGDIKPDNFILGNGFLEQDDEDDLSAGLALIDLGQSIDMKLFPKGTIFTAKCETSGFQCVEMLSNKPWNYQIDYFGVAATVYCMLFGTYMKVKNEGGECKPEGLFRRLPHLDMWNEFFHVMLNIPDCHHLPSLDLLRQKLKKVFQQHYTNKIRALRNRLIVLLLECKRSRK

IC50 [nM]	SMILES
733	CC1(C)CC(=O)c2c([nH]c(-c3ccnc(NS(C)(=O)=O)c3)c2Nc2ccccc2)C1
53.6	CC1(C)CC(=O)c2c([nH]c(-c3ccnc(Cl)c3)c2Nc2ccccc2)C1
99.8	CC1(C)CC(=O)c2c([nH]c(-c3ccnc(Br)c3)c2Nc2ccccc2)C1
1170	CC(C)Oc1cccc(Nc2c(-c3ccncc3)[nH]c3c2C(=O)CC(C)(C)C3)c1

The next lines start with the compound.

SMILES	IC50 [nM]
CC(=O)Nc1cc(-c2[nH]c3c(c2Nc2ccc(F)cc2)C(=O)CCC3)ccn1	58.9
CC1(C)CC(=O)c2c([nH]c(-c3ccnc(Nc4cccc(F)c4)c3)c2Nc2cccc(F)c2)C1	497
Cc1cccc(Nc2c(-c3ccncc3)[nH]c3c2C(=O)CC(C)(C)C3)c1F	85.5
CS(=O)(=O)Nc1cc(-c2[nH]c3c(c2Nc2ccccc2)C(=O)CCC3)ccn1	6660

— ChEMBL document CHEMBL5727333, “3-amino-1,5,6,7-tetrahydro-4H-indol-4-ones” (2019)
